The text below walks through data of patent US20060110332A1, “Agent for medicamentous treatment of acute and chronic pain” (Max-Delbruck-Centrum Fur Molekulare Medizin, priority 2002, published 2006).

The target of one data set is CaV3.2 (Homo sapiens, UniProt O95180). Conditions: cited from earlier work.
In the next data set the test system is living tissue. Conditions: cited from earlier work.
Data set [1] deals with cutaneous mechanotransduction. As to the kind of experiment: Skin-nerve preparation (saphenous nerve), mechanical sensitivity of the skin. Details: species or system mice. Here is the method:
The use of the skin-nerve preparation, which the present invention is based on, allows for the electrophysiological analysis of the different neurofibre types which innervate the skin (Koltzenburg et al., 1997, see above). The saphenous nerve and the region of the skin that it innervates are prepared from freshly killed mice and are mounted in a bath of physiological buffer. After mechanical or electrical stimulation of the skin, the nerve signals can be received directly from the nerve. For determining the effective concentration, tests were carried out with different concentrations of mibefradil in the bath solution. The EC50 of mibefradil on cells is between 0.1 and 1 μM. […] The unspecific blockade at high concentrations may be due to the fact that mibefradil, at high concentrations, has a very unspecific effect on other ubiquitously expressed calcium channels. Such blocking is lost at lower concentrations. The blocking of some AM mechanoreceptors also at low concentrations of mibefradil could have two reasons. The first possibility is that AM mechanoreceptors, too, express CaV3.2. This, however, is not very likely based on the findings obtained by the in-situ hybridisation within the framework of the present invention. It may rather be assumed that a different isotype, i.e. CaV3.3 is expressed in AM mechanoreceptors. It was not possible to detect CaV3.3 in in-situ hybridisation experiments in spinal ganglia, but other groups reported the expression of this calcium channel in medium-size cells. […] To sum up, it is concluded that the calcium channel CaV3.2 in spinal ganglia specifically expresses in D-hair mechanoreceptors and is therefore indispensable for its function. The discovery that the voltage-dependent calcium channels are involved in the transduction of mechanical stimuli by nociceptive and non-nociceptive neurons is new. Due to their physiological properties together with their specific localisation on the site of the mechanotransduction in the periphery, the calcium channels are ideal targets for pain therapy, which the invention is based on.

The subject of another data set is D-hair mechanoreceptors. As to the kind of experiment: Skin-nerve preparation (saphenous nerve), D-hair mechanoreceptors. Details: species or system mice. Conditions: 3 μM mibefradil in the bath solution. Here is the method:
(§1) The use of the skin-nerve preparation, which the present invention is based on, allows for the electrophysiological analysis of the different neurofibre types which innervate the skin (Koltzenburg et al., 1997, see above). The saphenous nerve and the region of the skin that it innervates are prepared from freshly killed mice and are mounted in a bath of physiological buffer. After mechanical or electrical stimulation of the skin, the nerve signals can be received directly from the nerve. For determining the effective concentration, tests were carried out with different concentrations of mibefradil in the bath solution. The EC50 of mibefradil on cells is between 0.1 and 1 μM. […] The unspecific blockade at high concentrations may be due to the fact that mibefradil, at high concentrations, has a very unspecific effect on other ubiquitously expressed calcium channels. Such blocking is lost at lower concentrations. The blocking of some AM mechanoreceptors also at low concentrations of mibefradil could have two reasons. The first possibility is that AM mechanoreceptors, too, express CaV3.2. This, however, is not very likely based on the findings obtained by the in-situ hybridisation within the framework of the present invention. It may rather be assumed that a different isotype, i.e. CaV3.3 is expressed in AM mechanoreceptors. […]

For a further data set, the system named is AM mechanoreceptors. Put plainly: Skin-nerve preparation (saphenous nerve), AM mechanoreceptors. Details: species or system mice. Conditions: 3 μM mibefradil in the bath solution. Here is the method:
as §1

Another data set addresses CaV3.1 (Rattus norvegicus, UniProt O54898). Conditions: compared with CaV3.2; cited from earlier work.
In another data set the test system is CaV3.3. Conditions: compared with CaV3.2, cited from earlier work.
A further data set has as its system L-type calcium channels. The note with it: cited from earlier work.
The conditions of data set [2]: reason for removal from the market; cited from earlier work.
The next data set has as its system T-type calcium channels. Conditions: cited from earlier work.

pEC50: −log10 of the molar value. “Also recorded” adds a separate entry of the source. Where two headings read alike, the source gives them in different places.

Chain of CaV3.2 (O95180 whole entry): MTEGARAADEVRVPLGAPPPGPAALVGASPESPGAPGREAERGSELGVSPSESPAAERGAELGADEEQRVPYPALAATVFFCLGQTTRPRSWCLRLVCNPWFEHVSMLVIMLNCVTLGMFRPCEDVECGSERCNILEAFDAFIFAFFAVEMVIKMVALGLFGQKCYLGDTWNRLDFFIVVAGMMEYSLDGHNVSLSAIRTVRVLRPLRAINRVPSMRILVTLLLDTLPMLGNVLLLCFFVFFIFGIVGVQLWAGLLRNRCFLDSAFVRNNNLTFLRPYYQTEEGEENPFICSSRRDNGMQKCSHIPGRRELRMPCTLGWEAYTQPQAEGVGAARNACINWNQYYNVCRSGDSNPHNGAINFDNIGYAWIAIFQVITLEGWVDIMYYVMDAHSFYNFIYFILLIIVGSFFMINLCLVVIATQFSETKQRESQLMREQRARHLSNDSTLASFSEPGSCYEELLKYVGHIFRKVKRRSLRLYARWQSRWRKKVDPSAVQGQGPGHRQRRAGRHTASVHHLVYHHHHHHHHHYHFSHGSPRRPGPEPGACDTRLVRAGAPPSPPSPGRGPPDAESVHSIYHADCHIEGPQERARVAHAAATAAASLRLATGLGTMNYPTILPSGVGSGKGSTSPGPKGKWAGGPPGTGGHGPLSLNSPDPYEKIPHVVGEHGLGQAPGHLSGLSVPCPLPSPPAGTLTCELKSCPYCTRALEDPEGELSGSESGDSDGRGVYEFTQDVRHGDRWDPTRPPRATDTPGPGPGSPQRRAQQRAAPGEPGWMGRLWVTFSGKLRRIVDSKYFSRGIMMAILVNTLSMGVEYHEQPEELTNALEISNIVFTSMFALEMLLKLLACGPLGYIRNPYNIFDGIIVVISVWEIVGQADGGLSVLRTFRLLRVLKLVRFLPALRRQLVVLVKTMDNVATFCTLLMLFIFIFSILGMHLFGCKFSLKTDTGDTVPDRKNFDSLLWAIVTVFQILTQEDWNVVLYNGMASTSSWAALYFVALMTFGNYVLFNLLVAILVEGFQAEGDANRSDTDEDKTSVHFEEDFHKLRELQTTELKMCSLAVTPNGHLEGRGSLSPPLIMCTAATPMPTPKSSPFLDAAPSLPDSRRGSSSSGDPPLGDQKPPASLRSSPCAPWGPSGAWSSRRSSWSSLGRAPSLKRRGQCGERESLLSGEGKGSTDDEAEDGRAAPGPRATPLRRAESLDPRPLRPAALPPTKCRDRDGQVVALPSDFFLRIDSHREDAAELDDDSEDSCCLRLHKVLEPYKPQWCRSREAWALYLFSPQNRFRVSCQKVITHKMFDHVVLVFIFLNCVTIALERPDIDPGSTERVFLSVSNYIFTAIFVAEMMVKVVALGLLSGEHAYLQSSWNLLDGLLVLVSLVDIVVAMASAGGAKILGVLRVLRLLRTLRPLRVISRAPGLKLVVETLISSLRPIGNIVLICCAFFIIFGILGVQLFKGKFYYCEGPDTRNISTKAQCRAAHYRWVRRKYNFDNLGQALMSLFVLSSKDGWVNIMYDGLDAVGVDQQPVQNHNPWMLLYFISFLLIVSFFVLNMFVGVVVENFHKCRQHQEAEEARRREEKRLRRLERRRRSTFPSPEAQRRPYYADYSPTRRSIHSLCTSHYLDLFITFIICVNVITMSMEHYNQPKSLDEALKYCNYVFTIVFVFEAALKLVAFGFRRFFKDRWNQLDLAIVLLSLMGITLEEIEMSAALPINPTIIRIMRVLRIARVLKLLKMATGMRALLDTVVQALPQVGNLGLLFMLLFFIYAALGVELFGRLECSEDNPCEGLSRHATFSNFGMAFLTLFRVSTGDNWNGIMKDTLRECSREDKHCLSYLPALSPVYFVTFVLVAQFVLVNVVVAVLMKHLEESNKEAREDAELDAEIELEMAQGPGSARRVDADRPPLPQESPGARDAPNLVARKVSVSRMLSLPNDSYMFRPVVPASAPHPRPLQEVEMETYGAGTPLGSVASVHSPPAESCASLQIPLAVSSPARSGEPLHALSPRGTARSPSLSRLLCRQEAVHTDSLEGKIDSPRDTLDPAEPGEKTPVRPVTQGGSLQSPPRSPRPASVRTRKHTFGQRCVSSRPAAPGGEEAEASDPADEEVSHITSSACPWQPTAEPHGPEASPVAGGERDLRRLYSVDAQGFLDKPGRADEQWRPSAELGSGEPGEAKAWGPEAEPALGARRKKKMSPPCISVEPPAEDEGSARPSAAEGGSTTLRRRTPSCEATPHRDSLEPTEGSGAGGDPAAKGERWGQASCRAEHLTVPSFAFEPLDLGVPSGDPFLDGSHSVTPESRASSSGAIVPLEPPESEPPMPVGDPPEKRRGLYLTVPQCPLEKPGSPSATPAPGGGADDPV
Chain of CaV3.1 (O54898 whole entry): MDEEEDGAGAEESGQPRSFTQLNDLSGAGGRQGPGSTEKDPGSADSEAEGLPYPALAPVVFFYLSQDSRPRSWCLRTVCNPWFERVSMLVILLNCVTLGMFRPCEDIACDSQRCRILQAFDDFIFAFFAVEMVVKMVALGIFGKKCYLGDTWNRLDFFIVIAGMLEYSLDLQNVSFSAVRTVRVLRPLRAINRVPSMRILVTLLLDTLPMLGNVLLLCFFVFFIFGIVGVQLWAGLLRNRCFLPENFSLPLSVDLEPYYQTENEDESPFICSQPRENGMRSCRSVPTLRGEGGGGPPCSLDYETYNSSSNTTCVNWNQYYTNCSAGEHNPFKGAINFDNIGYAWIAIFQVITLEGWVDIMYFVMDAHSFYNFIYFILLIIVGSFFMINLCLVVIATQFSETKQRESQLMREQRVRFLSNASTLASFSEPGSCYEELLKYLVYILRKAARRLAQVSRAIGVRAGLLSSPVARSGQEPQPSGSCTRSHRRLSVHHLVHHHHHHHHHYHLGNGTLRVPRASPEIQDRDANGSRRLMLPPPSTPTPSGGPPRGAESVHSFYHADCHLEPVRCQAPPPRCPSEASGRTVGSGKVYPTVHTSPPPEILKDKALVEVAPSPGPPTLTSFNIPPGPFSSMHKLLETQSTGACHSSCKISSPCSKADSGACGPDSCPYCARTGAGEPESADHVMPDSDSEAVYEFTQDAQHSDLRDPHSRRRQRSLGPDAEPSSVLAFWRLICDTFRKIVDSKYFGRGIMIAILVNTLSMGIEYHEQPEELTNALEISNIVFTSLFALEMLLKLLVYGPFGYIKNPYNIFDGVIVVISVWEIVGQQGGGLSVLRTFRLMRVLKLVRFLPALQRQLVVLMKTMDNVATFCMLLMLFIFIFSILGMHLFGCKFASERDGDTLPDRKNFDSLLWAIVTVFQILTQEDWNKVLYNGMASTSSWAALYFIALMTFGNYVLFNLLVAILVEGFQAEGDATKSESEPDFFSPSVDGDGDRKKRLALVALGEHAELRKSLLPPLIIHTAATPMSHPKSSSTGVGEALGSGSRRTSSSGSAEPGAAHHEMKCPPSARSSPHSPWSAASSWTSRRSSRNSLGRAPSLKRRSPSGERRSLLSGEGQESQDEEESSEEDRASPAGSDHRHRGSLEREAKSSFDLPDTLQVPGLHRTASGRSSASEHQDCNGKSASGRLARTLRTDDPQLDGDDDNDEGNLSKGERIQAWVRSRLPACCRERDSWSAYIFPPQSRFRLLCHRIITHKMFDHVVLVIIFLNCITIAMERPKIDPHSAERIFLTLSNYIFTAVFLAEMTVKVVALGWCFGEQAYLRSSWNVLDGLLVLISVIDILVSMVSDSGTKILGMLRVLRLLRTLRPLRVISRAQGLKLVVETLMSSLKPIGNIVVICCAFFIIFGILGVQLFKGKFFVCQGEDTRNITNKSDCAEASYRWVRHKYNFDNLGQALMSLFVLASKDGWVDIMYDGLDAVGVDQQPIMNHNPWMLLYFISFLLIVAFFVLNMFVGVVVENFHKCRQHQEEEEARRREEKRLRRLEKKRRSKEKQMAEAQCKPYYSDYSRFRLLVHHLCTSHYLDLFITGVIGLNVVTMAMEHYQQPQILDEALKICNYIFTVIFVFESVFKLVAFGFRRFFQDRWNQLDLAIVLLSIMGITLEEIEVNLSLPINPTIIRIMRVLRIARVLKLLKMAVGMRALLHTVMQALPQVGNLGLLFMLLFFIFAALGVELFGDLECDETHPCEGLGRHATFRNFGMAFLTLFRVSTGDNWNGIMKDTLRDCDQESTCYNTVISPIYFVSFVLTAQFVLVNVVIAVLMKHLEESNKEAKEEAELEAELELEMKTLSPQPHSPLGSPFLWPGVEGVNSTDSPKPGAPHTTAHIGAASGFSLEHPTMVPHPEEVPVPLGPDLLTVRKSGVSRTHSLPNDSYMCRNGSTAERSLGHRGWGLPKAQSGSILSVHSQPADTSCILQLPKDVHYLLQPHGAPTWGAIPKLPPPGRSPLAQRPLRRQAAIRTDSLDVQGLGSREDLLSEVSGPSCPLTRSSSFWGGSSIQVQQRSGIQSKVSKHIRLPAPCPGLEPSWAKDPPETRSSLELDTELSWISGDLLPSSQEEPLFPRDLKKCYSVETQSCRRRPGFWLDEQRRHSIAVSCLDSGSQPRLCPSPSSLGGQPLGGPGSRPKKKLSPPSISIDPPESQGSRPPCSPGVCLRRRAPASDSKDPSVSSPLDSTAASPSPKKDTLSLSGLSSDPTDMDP

For the compound `[Ni]` [nickel], the “EC50 on CaV3.2 relative to the other isotypes” value at CaV3.2 (CaV3.2 versus other T-type isotypes) was 70 times. The pEC50 on CaV3.2 (read-out: EC50 on CaV3.2) is about 5.00. The cytotoxicity result with living tissue is given as “cytotoxic”.

Turning to `COCC(=O)O[C@]1(CCN(C)CCCc2nc3ccccc3[nH]2)CCc2cc(F)ccc2[C@@H]1C(C)C` [mibefradil], in [1] (higher concentrations of mibefradil), the blocking of mechanotransduction entry was “complex blocking of other mechanoreceptors; also recorded: blocks not only the D-hair mechanotransduction but also the entire mechanotransduction”. The “inhibition of cutaneous mechanotransduction” value in data set [1] (low concentrations (25 μM or less)) is listed as “virtually inhibits the entire cutaneous mechanotransduction”. Besides, the “blocking of the mechanical sensitivity” value in data set [1] (more than 25 μM mibefradil in the bath solution) was “almost complete and unspecific blocking of the mechanical sensitivity”. In the data set with D-hair mechanoreceptors, the “inhibition of D-hair mechanoreceptors” value was “specifically inhibited”. For the same compound, the “inhibition of AM mechanoreceptors” value with AM mechanoreceptors is given as “in part, also AM mechanoreceptors are specifically inhibited”. Also, the “effect on T-type isotype CaV3.1” value on CaV3.1 was “almost identical effect”. Moreover, the “effect / semi-effective concentration on CaV3.3” value with CaV3.3 was “almost identical”; in the data set with CaV3.3 (listed as Mibefradil), “almost identical effect”. In addition, the “concentration blocking L-type relative to that necessary for T-type blocking” value in the data set on L-type calcium channels is “about 10 fold”. Also, the “interaction with other medicaments” value in data set [2] is reported as “severe interaction with other medicaments”. The “selectivity for T-type calcium channels” value in the data set on T-type calcium channels is on record as “relatively high selectivity for T-type calcium channels”.

Broadly, the pEC50 is −log10 of the EC50, conventionally taken in molar units.
